Data: ChEMBL document CHEMBL3045576, “Azadirachtin avoidance by larvae and adult females of the tomato leafminer Tuta absoluta” (2013)
Calls of active or inactive are those of the source. The calls are words filed in the database; no cut-off is given here.

Tests used:
[1] = system: Tuta absoluta; assay: Walking avoidance activity against second-instar larval stage of Tuta absoluta Araguari in compound-pretreated tomato leaves assessed as decrease in walking time at LC50 to LC90 concentration measured after 6 hr; assay type: functional, organism-based
[2] = system: Tuta absoluta; assay: Egg-laying avoidance activity against non-sexed adult stage of Tuta absoluta Araguari in compound-pretreated tomato leaves assessed as decrease in number of eggs laid at equal to and greater than LC50 concentration measured for 2 days by free-choice test; assay type: functional, organism-based
[3] = system: Tuta absoluta; assay: Egg-laying avoidance activity against non-sexed adult stage of Tuta absoluta Araguari in compound-pretreated tomato leaves assessed as decrease in number of eggs laid at LC10 to LC90 concentration measured for 2 days by no-choice test; assay type: functional, organism-based
[4] = system: Tuta absoluta; assay: Walking avoidance activity against second-instar larval stage of Tuta absoluta Araguari infested compound-pretreated filter paper assessed as effect on walking time at LC90 concentration measured for 10 min; assay type: functional, organism-based
[5] = system: Tuta absoluta; assay: Insecticidal activity against second-instar larval stage of Tuta absoluta in tomato leaves assessed as survival rate at 1.7 mg ai/L incubated for 5 s prior to larval infestation after 9 days (reference value: >60%); assay type: functional; settings: 216 h
[6] = system: Tuta absoluta; assay: Insecticidal activity against second-instar larval stage of Tuta absoluta in tomato leaves assessed as survival rate at 27 mg ai/L incubated for 5 s prior to larval infestation after 9 days (reference value: >60%); assay type: functional; settings: 216 h
[7] = system: Tuta absoluta; assay: Effect on leaf mining activity of Tuta absoluta Araguari second-instar larvae in compound-pretreated tomato leaves assessed as length of time required to mine the leaf at LC10 to LC90 concentration; assay type: functional
[8] = system: Tuta absoluta; assay: Insecticidal activity against Tuta absoluta Vicosa larvae in compound-pre-treated tomato leaves assessed as mortality after 144 hr; assay type: functional
[9] = system: Tuta absoluta; assay: Walking avoidance activity against second-instar larval stage of Tuta absoluta Vicosa infested compound-pretreated filter paper assessed as effect on walking time at LC90 concentration measured for 10 min; assay type: functional, organism-based
[10] = system: Tuta absoluta; assay: Insecticidal activity against second-instar larval stage of Tuta absoluta in tomato leaves assessed as delay in larval development at 27 mg ai/L incubated for 5 s prior to larval infestation after 9 days; assay type: functional, organism-based
[11] = system: Tuta absoluta; assay: Walking avoidance activity against second-instar larval stage of Tuta absoluta Araguari in compound-pretreated tomato leaves assessed as decrease in walking time at LC10 concentration measured after 6 hr; assay type: functional, organism-based
[12] = system: Tuta absoluta; assay: Insecticidal activity against Tuta absoluta Araguari larvae in compound-pre-treated tomato leaves assessed as mortality after 144 hr; assay type: functional
[13] = system: Tuta absoluta; assay: Egg-laying avoidance activity against non-sexed adult stage of Tuta absoluta Vicosa in compound-pretreated tomato leaves assessed as decrease in number of eggs laid measured for 2 days by free-choice test; assay type: functional, organism-based
[14] = system: Tuta absoluta; assay: Walking avoidance activity against fourth-instar larval stage of Tuta absoluta Vicosa infested compound-pretreated filter paper assessed as effect on walking time at LC90 concentration measured for 10 min; assay type: functional, organism-based
[15] = system: Tuta absoluta; assay: Resistance ratio of LC50 for Tuta absoluta Vicosa larvae to LC50 for Tuta absoluta Araguari larvae; assay type: functional
[16] = system: Tuta absoluta; assay: Walking avoidance activity against fourth-instar larval stage of Tuta absoluta Araguari infested compound-pretreated filter paper assessed as effect on walking time at LC90 concentration measured for 10 min; assay type: functional, organism-based
[17] = system: Tuta absoluta; assay: Walking avoidance activity against second-instar larval stage of Tuta absoluta Vicosa in compound-pretreated tomato leaves assessed as decrease in walking time at LC50 to LC90 concentration measured after 6 hr; assay type: functional, organism-based
[18] = system: Tuta absoluta; assay: Resistance ratio of LC10 for Tuta absoluta Vicosa larvae to LC10 for Tuta absoluta Araguari larvae; assay type: functional
[19] = system: Tuta absoluta; assay: Walking avoidance activity against second-instar larval stage of Tuta absoluta Vicosa in compound-pretreated tomato leaves assessed as decrease in walking time at LC10 concentration measured after 6 hr; assay type: functional, organism-based
[20] = system: Tuta absoluta; assay: Effect on leaf mining activity of Tuta absoluta Vicosa second-instar larvae in compound-pretreated tomato leaves assessed as length of time required to mine the leaf at LC10 to LC90 concentration; assay type: functional
[21] = system: Tuta absoluta; assay: Egg-laying avoidance activity against non-sexed adult stage of Tuta absoluta Vicosa in compound-pretreated tomato leaves assessed as decrease in number of eggs laid at LC10 to LC90 concentration measured for 2 days by no-choice test; assay type: functional, organism-based
[22] = system: Tuta absoluta; assay: Resistance ratio of LC90 for Tuta absoluta Vicosa larvae to LC90 for Tuta absoluta Araguari larvae; assay type: functional

With `C/C=C(\C)C(=O)O[C@H]1C[C@@H](OC(C)=O)[C@@]2(C(=O)OC)CO[C@H]3[C@@H](O)[C@@](C)([C@]45O[C@@]4(C)[C@@H]4C[C@H]5O[C@@H]5OC=C[C@@]54O)[C@H]4[C@]1(CO[C@]4(O)C(=O)OC)[C@@H]32` [AZADIRACHTIN A] the inhibition [1] was “Active”, the inhibition [2] was “Active” and the inhibition [3] was “inactive”. The Activity [4] was “inactive”, the survival at 1.7 µg/mL [5] was 25% and the survival at 27 µg/mL [6] was < 4%. It also gave a Time [7] of 38.72 min, an LC10 [8] of 1.59 mgAi/L and an LC50 [8] of 10.09 mgAi/L. For the same molecule, the LC90 [8] was 64.06 mgAi/L, the Activity [9] was “inactive” and the Activity [10] was “Active”. The inhibition [11] was “inactive”, the LC10 [12] was 0.97 mgAi/L and the LC50 [12] was 5.62 mgAi/L. For the same molecule, the LC90 [12] was 32.71 mgAi/L, the inhibition [13] was “Dose-dependent effect” and the Activity [14] was “inactive”. For the same molecule, the Ratio [15] was 1.8, the Activity [16] was “inactive” and the inhibition [17] was “Active”. For the same molecule, the Ratio [18] was 1.65, the inhibition [19] was “inactive” and the Time [20] was 33.56 min. The inhibition [21] was “inactive” and the Ratio [22] was 1.96.
